Data as given in patent US12435061B2 (priority 2020, dated 2025).
Counter-ions that a name gives are not always drawn. Like-named read-outs stand apart in the source and are kept apart here.

Molecular target: hTRPV3 (Homo sapiens (Human), UniProt Q8NET8)
Test: Whole-cell patch clamp, hTRPV3 Phase 1 / Phase 2 currents
Type: cell-based
Procedure, shortened: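 Currents are activated by 20 μM 2-APB or by perfusate at 28 °C or warmer, in Ringer's solution, and quantified at ±80 mV.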

[1] = read-out: hTRPV3 (nM) (Phase 1)
[2] = Phase 2 current, inward, whole-cell patch clamp, read-out: hTRPV3 Patch P2 Inwd
[3] = Phase 2 current, read-out: hTRPV3 (nM) (Phase 2)
[4] = Phase 1 current, inward, whole-cell patch clamp, read-out: hTRPV3 Patch P1 Inwd
[5] = Phase 1 current, read-out: hTRPV3 (nM) (Phase 1)
[6] = Phase 1 current, human TRPV3, read-out: hTRPV3 (nM) Phase 1

Sequence of hTRPV3 (Q8NET8 whole entry): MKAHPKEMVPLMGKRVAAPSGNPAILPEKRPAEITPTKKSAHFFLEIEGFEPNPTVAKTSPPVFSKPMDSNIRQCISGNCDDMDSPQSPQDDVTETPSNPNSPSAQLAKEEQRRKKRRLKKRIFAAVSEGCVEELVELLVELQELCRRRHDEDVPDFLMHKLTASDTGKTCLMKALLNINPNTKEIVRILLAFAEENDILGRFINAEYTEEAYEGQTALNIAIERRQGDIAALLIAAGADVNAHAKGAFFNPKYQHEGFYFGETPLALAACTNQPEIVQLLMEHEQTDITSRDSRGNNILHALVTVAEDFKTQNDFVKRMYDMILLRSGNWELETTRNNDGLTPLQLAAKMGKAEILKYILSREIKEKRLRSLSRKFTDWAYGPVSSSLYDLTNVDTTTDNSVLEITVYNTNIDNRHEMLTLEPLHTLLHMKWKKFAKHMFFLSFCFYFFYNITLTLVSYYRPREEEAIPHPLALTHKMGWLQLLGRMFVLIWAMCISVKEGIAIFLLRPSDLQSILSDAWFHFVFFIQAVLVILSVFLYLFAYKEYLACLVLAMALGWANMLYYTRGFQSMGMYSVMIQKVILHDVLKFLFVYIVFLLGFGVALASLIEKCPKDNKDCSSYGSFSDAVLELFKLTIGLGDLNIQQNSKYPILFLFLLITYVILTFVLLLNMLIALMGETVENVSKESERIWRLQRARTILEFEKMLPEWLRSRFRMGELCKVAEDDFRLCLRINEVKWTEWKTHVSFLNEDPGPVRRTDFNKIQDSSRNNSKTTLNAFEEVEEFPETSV

Row | SMILES | IC50 [4] [nM] | IC50 [5] [nM] | also measured
1 | OCc1nc(Oc2ccccc2)ccc1N1CC[C@H](Oc2ccc(C(F)(F)F)cn2)C1 [Compound 1-199, (S)-(6-phenoxy-3-(3-(5-(trifluoromethyl)pyridin-2-yloxy)pyrrolidin-1-yl)pyridin-2-yl)methanol] |  |  | IC50 (hTRPV3 Patch P1 Inwd (nM)): > 1000 nM; IC50 (hTRPV3 Patch P2 Inwd (nM)): > 1000 nM; IC50 [1]: > 3200 nM; IC50 (read-out: hTRPV3 (nM) (Phase 2)): > 3200 nM
2 | NCc1cc(-c2ccccc2)ccc1N1CC[C@H](Oc2ncccc2Cl)C1 [Compound 1-125, (S)-(4-(3-(3-chloropyridin-2-yloxy)pyrrolidin-1-yl)biphenyl-3-yl)methanamine hydrochloride] |  |  | IC50 [2]: > 1000 nM; IC50 [3]: > 3200 nM
3 | CC(=O)c1ccc(Oc2ccc(N3CC[C@H](Oc4ccccn4)C3)c(CO)c2)c(F)c1 [Compound 1-306] | 100 to 1000 | 982 | IC50 [2]: 100 to 1000 nM; IC50 [3]: 735 nM
4 | OCc1cc(Br)ccc1N1C[C@@H](O)[C@H](Oc2ccc(C(F)(F)F)cn2)C1 [Compound 1-284] | > 1000 | 1630 | 
5 | CCc1ccccc1Oc1ccc(C2CC(=O)N(Cc3ccccn3)C2)c(C(N)=O)c1 (stereo not drawn) [Compound 2-100, 5-(2-ethylphenoxy)-2-(5-oxo-1-(pyridin-2-ylmethyl)pyrrolidin-3-yl)benzamide] | > 1000 |  | IC50 [6]: > 3200 nM
6 | OCc1cc(C2=CCOCC2)ccc1N1CC[C@H](Oc2ccc(C(F)(F)F)cn2)C1 [Compound 1-280, (S)-(5-(3,6-dihydro-2H-pyran-4-yl)-2-(3-(5-(trifluoromethyl)pyridin-2-yloxy)pyrrolidin-1-yl)phenyl)methanol] | > 1000 | ~3600 | 
7 | NC(=O)c1cc(Oc2ccccc2)ccc1N1CC[C@H](Oc2ccc(C(F)(F)F)cn2)C1 [Compound 1-124, (S)-5-phenoxy-2-(3-(5-(trifluoromethyl)pyridin-2-yloxy)pyrrolidin-1-yl)benzamide] |  |  | IC50 (hTRPV3 Patch P1 Inwd (nM)): 100 to 1000 nM; IC50 [1]: 729 nM
8 | NC(=O)c1cc(-c2ccccc2)cnc1N1CC[C@@H](Nc2ccc(C(F)(F)F)cn2)C1 [Compound 1-378, (R)-5-phenyl-2-(3-(5-(trifluoromethyl)pyridin-2-ylamino)pyrrolidin-1-yl)nicotinamide] | > 1000 | > 3200 | IC50 [2]: > 1000 nM; IC50 [3]: > 3200 nM
9 | COCc1ccccc1-c1ccc(C2CCN(C(=O)c3ccc(F)cn3)C2)c(CO)c1 (stereo not drawn) [Compound 2-61, (5-fluoropyridin-2-yl)(3-(3-(hydroxymethyl)-2′-(methoxymethyl)biphenyl-4-yl)pyrrolidin-1-yl)methanone] | 100 to 1000 |  | IC50 [6]: 153 nM
10 | O=C(Nc1ccc(F)cc1)c1ccc(N2CC[C@H](Oc3ncccc3Cl)C2)c(CCO)c1 [Compound 1-319, (S)-4-(3-(3-chloropyridin-2-yloxy)pyrrolidin-1-yl)-N-(4-fluorophenyl)-3-(2-hydroxyethyl)benzamide] | > 1000 | 3440 | 
11 | NC(=O)c1ccccc1N1CCC(Oc2ccc3ccccc3n2)C1=O (stereo not drawn) [Compound 1-105, 2-(2-oxo-3-(quinolin-2-yloxy)pyrrolidin-1-yl)benzamide] | > 1000 | > 3200 | 
12 | O=C(c1ccc(Cl)cc1)c1ccc(N2CC[C@H](Oc3ncccc3Cl)C2)c(CCO)c1 [Compound 1-291, (S)-(4-chlorophenyl)(4-(3-(3-chloropyridin-2-yloxy)pyrrolidin-1-yl)-3-(2-hydroxyethyl)phenyl)methanone] | 100 to 1000 | ~188 | IC50 [2]: 100 to 1000 nM; IC50 [3]: ~217 nM
13 | COc1ccc(C(=O)N2CCC(c3ccc(-c4ccccc4C4CC4)cc3CO)C2)nc1 (stereo not drawn) [Compound 2-76, (3-(2′-cyclopropyl-3-(hydroxymethyl)biphenyl-4-yl)pyrrolidin-1-yl)(5-methoxypyridin-2-yl)methanone] | 10 to 100 |  | IC50 [6]: 71 nM
14 | CN(C(=O)c1ccc(N2CC[C@H](Oc3ncccc3Cl)C2)c(CCO)c1)c1ccccc1 [Compound 1-337, (S)-4-(3-(3-chloropyridin-2-yloxy)pyrrolidin-1-yl)-3-(2-hydroxyethyl)-N-methyl-N-phenylbenzamide] | > 1000 | > 3200 | 
15 | OCc1cc(C(O)c2ccccc2Cl)ccc1N1CC[C@H](Oc2ccccn2)C1 (stereo partly drawn) [Compound 1-338, (2-chlorophenyl)(3-(hydroxymethyl)-4-((S)-3-(pyridin-2-yloxy)pyrrolidin-1-yl)phenyl)methanol] | 100 to 1000 | 196 | 
16 | OCc1cc(-c2ccccn2)ccc1N1CC[C@H](Oc2ccc(C(F)(F)F)cn2)C1 [Compound 1-254, (S)-(5-(pyridin-2-yl)-2-(3-(5-(trifluoromethyl)pyridin-2-yloxy)pyrrolidin-1-yl)phenyl) methanol] | > 1000 | 1290 | 
17 | O=C(c1ncccc1Cl)N1CCC(c2ccc(Oc3ccccc3)cc2CO)C1 (stereo not drawn) [Compound 2-85, (3-chloropyridin-2-yl)(3-(2-(hydroxymethyl)-4-phenoxyphenyl)pyrrolidin-1-yl)methanone] |  |  | IC50 [6]: 3310 nM

Row | SMILES | IC50 [4] [nM] | IC50 [5] [nM] | also measured
18 | O=C(c1cccc(Cl)c1)c1ccc(N2CC[C@H](Nc3ccc(F)cn3)C2)c(CCO)c1 [Compound 1-393, (S)-(3-chlorophenyl)(4-(3-(5-fluoropyridin-2-ylamino)pyrrolidin-1-yl)-3-(2-hydroxyethyl)phenyl)methanone] | > 1000 | ~2950 | IC50 [2]: > 1000 nM; IC50 [3]: > 3200 nM
19 | CCc1ccccc1Oc1ccc(C2CCN(C(=O)c3ncccc3Cl)C2)c(C(N)=O)c1 (stereo not drawn) [Compound 2-37, 2-(1-(3-chloropicolinoyl)pyrrolidin-3-yl)-5-(2-ethylphenoxy)benzamide] | > 1000 |  | IC50 [6]: ~2190 nM
20 | OCCc1cc(C(O)c2ccc(F)cc2)ccc1N1CC[C@H](Oc2ncccc2Cl)C1 (stereo partly drawn) [Compound 1-296, 2-(2-((S)-3-(3-chloropyridin-2-yloxy)pyrrolidin-1-yl)-5-((4-fluorophenyl)(hydroxy)methyl)phenyl)ethanol] | > 1000 | 1070 | IC50 [2]: > 1000 nM; IC50 [3]: 2160 nM
21 | OCCc1cc(C(O)c2ccc(Cl)cc2)ccc1N1CC[C@H](Nc2ccc(F)cn2)C1 (stereo partly drawn) [Compound 1-391, 2-(5-((4-chlorophenyl)(hydroxy)methyl)-2-((S)-3-(5-fluoropyridin-2-ylamino)pyrrolidin-1-yl)phenyl)ethanol] | > 1000 | > 3200 | 
22 | Cc1ccc(O[C@H]2CCN(c3ccc(-c4ccccc4C)nc3CCO)C2)nc1 [Compound 1-200, (S)-2-(3-(3-(5-methylpyridin-2-yloxy)pyrrolidin-1-yl)-6-o-tolylpyridin-2-yl)ethanol] | 100 to 1000 | 709 | 
23 | NC(=O)c1cc(-c2ccccc2)ccc1N1CC[C@H](Nc2ccc(C(F)(F)F)cn2)C1 [Compound 1-372, (S)-4-(3-(5-(trifluoromethyl)pyridin-2-ylamino)pyrrolidin-1-yl)biphenyl-3-carboxamide] | > 1000 |  | IC50 [2]: > 1000 nM
24 | CNC(=O)c1ccccc1N1CC[C@H](Oc2ccc(C(F)(F)F)cn2)C1 [Compound 1-39, (S)—N-methyl-2-(3-(5-(trifluoromethyl)pyridin-2-yloxy)pyrrolidin-1-yl)benzamide] | > 1000 |  | 
25 | NC(=O)c1ccc(-c2ccc(N3CC[C@H](Oc4ccc(C(F)(F)F)cn4)C3)c(CO)c2)cc1 [Compound 1-253, (S)-3′-(hydroxymethyl)-4′-(3-(5-(trifluoromethyl)pyridin-2-yloxy)pyrrolidin-1-yl)biphenyl-4-carboxamide] | > 1000 | > 3200 | 
26 | CC(O)c1cc(F)ccc1-c1ccc(C2CCN(C(=O)c3ccc(F)cn3)C2)c(CO)c1 (stereo not drawn) [Compound 2-70, (3-(4′-fluoro-2′-(1-hydroxyethyl)-3-(hydroxymethyl)biphenyl-4-yl)pyrrolidin-1-yl)(5-fluoropyridin-2-yl)methanone] | > 1000 |  | IC50 [6]: 2330 nM
27 | COc1ccccc1-c1ccc(N2CC[C@H](Oc3ccc(Cl)cn3)C2)c(CO)n1 [Compound 1-202, (S)-(3-(3-(5-chloropyridin-2-yloxy)pyrrolidin-1-yl)-6-(2-methoxyphenyl)pyridin-2-yl)methanol] |  |  | hTRPV3 (nM) (Phase 1) (Phase 1 current): Incomplete Block (Phase 1)
28 | CN(C)Cc1ccccc1N1CC[C@@H](Oc2ccc(C(F)(F)F)cn2)C1 [Compound 1-60, (R)—N,N-dimethyl-1-(2-(3-(5-(trifluoromethyl)pyridin-2-yloxy)pyrrolidin-1-yl)phenyl) methanamine hydrochloride] | > 1000 |  | IC50 [2]: > 1000 nM
29 | CCc1ccccc1-c1ccc(N2CC[C@H](Oc3ccc(Cl)cn3)C2)c(CO)n1 [Compound 1-201, (S)-(3-(3-(5-chloropyridin-2-yloxy)pyrrolidin-1-yl)-6-(2-ethylphenyl)pyridin-2-yl)methanol] | > 1000 | > 3200 | 
30 | NC(=O)c1cc(-c2ccccc2)ccc1N1CCC(Oc2ccc3ccccc3n2)C1=O (stereo not drawn) [Compound 1-123, 4-(2-oxo-3-(quinolin-2-yloxy)pyrrolidin-1-yl)biphenyl-3-carboxamide] | > 1000 | > 3200 | 
31 | O=C(c1cnc(Cl)cn1)N1CCC(c2ccc(-c3ccccc3C3CC3)cc2CO)C1 (stereo not drawn) [Compound 2-108] | 10 to 100 |  | IC50 [6]: 12.9 nM
32 | O=C(c1cscn1)N1CCC(c2ccc(-c3ccccc3C3CC3)cc2CO)C1 (stereo not drawn) [Compound 2-111, (3-(2′-cyclopropyl-3-(hydroxymethyl)biphenyl-4-yl)pyrrolidin-1-yl)(thiazol-4-yl)methanone] | 100 to 1000 |  | IC50 [6]: 194 nM
33 | COCc1ccccc1Oc1ccc(N2CC[C@H](Oc3ncccc3C)C2)c(CCO)c1 [Compound 1-350, (S)-2-(5-(2-(methoxymethyl)phenoxy)-2-(3-(3-methylpyridin-2-yloxy)pyrrolidin-1-yl)phenyl)ethanol] | 100 to 1000 | 311 | 
